Measured values published in patent US7626030B2, “Compounds and methods of use” (Amgen Inc., priority 2004, dated 2009).

Experiments:
c-Met in PC3 cells = target: T1, c-Met in PC3 cells (Homo sapiens, UniProt P08581); assay: c-Met cell-based autophosphorylation assay, PC3 cells; conditions: HGF-stimulated
T1 construct: host or cells: PC3 cells
Description: c-Met Cell-Based Autophosphorylation Assay
Human PC3 and mouse CT26 cells are available obtained from ATCC. The cells were cultured in a growth medium containing RPMI 1640, penicillin/streptomycin/glutamine (1×) and 5% FBS. 2×10^4 cells in medium were plated per well in a 96 well plate and incubated at 37° C. overnight. The cells were serum-starved by replacing the growth media with basic medium (DMEM low glucose+0.1 BSA, 120 μL per well) at 37° C. for 16 h. Compounds (either 1 mM and 0.2 mM) in 100% DMSO were serially diluted (1:3) 3333 fold on a 96 well plate, diluting 1:3 with DMSO from column 1 to 11 (columns 6 and 12 receive no compound). Compound samples (2.4 μL per well) were diluted with basic medium (240 μL) in a 96 well plate. The cells were washed once with basic medium (GIBCO, DMEM 11885-076) then compound solution was added (100 μL). The cells were incubated at 37° C. for 1 h. A (2 mg/mL) solution of CHO-HGF (7.5 μL) was diluted with 30 mL basic medium to provide a final concentration of 500 ng/mL. This HGF-containing media (120 μL) was transferred to a 96 well plate. Compounds (1.2 μL) was added to the HGF-containing media and mixed well. The mixture of media/HGF/compound (100 μL) was added to the cells (final HGF concentration—250 ng/mL) then incubated at 37° C. for 10 min. A cell lysate buffer (20 mL) was prepared containing 1% Triton X-100, 50 mM Tris pH 8.0, 100 mM NaCl, Protease inhibitor (Sigma, #P-8340) 200 μL, Roche Protease inhibitor (Complete, # 1-697-498) 2 tablets, Phosphatase Inhibitor II (Sigma, #P-5726) 200 μL, and a sodium vanadate solution (containing 900 μL PBS, 100 μL 300 mM NaVO3, 6 μl H2O2 (30% stock) and stirred at RT for 15 min) (90 μL). The cells were washed once with ice cold 1×PBS (GIBCO, #14190-136), then lysis buffer (60 μL) was added and the cells were incubated on ice for 20 min.
The IGEN assay was performed as follows: Dynabeads M-280 streptavidin beads were pre-incubated with biotinylated anti-human HGFR (240 μL anti-human-HGFR (R&D system, BAF527 or BAF328) @ 100 μg/mL+360 μL Beads (IGEN #10029+5.4 μL buffer−PBS/1% BSA/0.1% Tween20) by rotating for 30 min at RT. Antibody beads (25 μL) were transferred to a 96 well plate. Cell lysate solution (25 μL) was transferred added and the plate was shaken at RT for 1 h. Anti-phosphotyrosine 4G10 (Upstate 05-321) (19.7 μL antibody+6 mL 1×PBS) (12.5 μL) was added to each well, then incubated for 1 h at RT. Anti-mouse IgG ORI-Tag (ORIGEN #110087) (24 μL Antibody+6 mL buffer) (12.5 μL) was added to each well, then incubated at RT for 30 min. 1×PBS (175 μL) was added to each well and the electrochemiluminescence was read by an IGEN M8. Raw data was analyzed using a 4-parameter fit equation in XLFit. IC50 values are then determined using Grafit software.

[1] = test system: Human Umbilical Vein Endothelial cells; assay: HUVEC proliferation assay (VEGF-stimulated); format: cell-based; conditions: read-out: inhibition of VEGF-stimulated HUVEC proliferation, level
Description: HUVEC Proliferation Assay
Human Umbilical Vein Endothelial cells are purchased from Clonetics, Inc., as cryopreserved cells harvested from a pool of donors. These cells, at passage 1, are thawed and expanded in EBM-2 complete medium, until passage 2 or 3. The cells are trypsinized, washed in DMEM+10% FBS+antibiotics, and spun at 1000 rpm for 10 min. Prior to centrifugation of the cells, a small amount is collected for a cell count. After centrifugation, the medium is discarded, and the cells are resuspended in the appropriate volume of DMEM+10% FBS+antibiotics to achieve a concentration of 3×10^5 cells/mL. Another cell count is performed to confirm the cell concentration. The cells are diluted to 3×10^4 cells/mL in DMEM+10% FBS+antibiotics, and 100 μL of cells are added to a 96-well plate. The cells are incubated at 37° C. for 22 h.
Prior to the completion of the incubation period, compound dilutions are prepared. Five-point, five-fold serial dilutions are prepared in DMSO, at concentrations 400-fold greater than the final concentrations desired. 2.5 μL of each compound dilution are diluted further in a total of 1 mL DMEM+10% FBS+antibiotics (400× dilution). Medium containing 0.25% DMSO is also prepared for the […]. At the 22 h timepoint, the medium is removed from the cells, and 100 μL of each compound dilution is added. The cells are incubated at 37° C. for 2-3 h.
During the compound pre-incubation period, the growth factors are diluted to the appropriate concentrations. Solutions of DMEM+10% FBS+antibiotics, containing either VEGF or bFGF at the following concentrations: 50, 10, 2, 0.4, 0.08, and 0 ng/mL are prepared. For the compound-treated cells, solutions of VEGF at 550 ng/mL or bFGF at 220 ng/mL for 50 ng/mL or 20 ng/mL final concentrations, respectively, are prepared since 10 μL of each will be added to the cells (110 μL final volume). At the appropriate time after adding the compounds, the growth factors are added. VEGF is added to one set of plates, while bFGF is added to another set of plates. For the growth factor control curves, the media on wells B4-G6 of plates 1 and 2 are replaced with media containing VEGF or bFGF at the varying concentrations (50-0 ng/mL). The cells are incubated at 37° C. for an additional 72 h.
At the completion of the 72 h incubation period, the medium is removed, and the cells are washed twice with PBS. After the second wash with PBS, the plates are tapped gently to remove excess PBS, and the cells are placed at −70° C. for at least 30 min. The cells are thawed and analyzed using the CyQuant fluorescent dye (Molecular Probes C-7026), following the manufacturer's recommendations. The plates are read on a Victor/Wallac 1420 workstation at 485 nm/530 nm (excitation/emission). Raw data are collected and analyzed using a 4-parameter fit equation in XLFit. IC50 values are then determined.

T1 sequence (P08581 25-1390): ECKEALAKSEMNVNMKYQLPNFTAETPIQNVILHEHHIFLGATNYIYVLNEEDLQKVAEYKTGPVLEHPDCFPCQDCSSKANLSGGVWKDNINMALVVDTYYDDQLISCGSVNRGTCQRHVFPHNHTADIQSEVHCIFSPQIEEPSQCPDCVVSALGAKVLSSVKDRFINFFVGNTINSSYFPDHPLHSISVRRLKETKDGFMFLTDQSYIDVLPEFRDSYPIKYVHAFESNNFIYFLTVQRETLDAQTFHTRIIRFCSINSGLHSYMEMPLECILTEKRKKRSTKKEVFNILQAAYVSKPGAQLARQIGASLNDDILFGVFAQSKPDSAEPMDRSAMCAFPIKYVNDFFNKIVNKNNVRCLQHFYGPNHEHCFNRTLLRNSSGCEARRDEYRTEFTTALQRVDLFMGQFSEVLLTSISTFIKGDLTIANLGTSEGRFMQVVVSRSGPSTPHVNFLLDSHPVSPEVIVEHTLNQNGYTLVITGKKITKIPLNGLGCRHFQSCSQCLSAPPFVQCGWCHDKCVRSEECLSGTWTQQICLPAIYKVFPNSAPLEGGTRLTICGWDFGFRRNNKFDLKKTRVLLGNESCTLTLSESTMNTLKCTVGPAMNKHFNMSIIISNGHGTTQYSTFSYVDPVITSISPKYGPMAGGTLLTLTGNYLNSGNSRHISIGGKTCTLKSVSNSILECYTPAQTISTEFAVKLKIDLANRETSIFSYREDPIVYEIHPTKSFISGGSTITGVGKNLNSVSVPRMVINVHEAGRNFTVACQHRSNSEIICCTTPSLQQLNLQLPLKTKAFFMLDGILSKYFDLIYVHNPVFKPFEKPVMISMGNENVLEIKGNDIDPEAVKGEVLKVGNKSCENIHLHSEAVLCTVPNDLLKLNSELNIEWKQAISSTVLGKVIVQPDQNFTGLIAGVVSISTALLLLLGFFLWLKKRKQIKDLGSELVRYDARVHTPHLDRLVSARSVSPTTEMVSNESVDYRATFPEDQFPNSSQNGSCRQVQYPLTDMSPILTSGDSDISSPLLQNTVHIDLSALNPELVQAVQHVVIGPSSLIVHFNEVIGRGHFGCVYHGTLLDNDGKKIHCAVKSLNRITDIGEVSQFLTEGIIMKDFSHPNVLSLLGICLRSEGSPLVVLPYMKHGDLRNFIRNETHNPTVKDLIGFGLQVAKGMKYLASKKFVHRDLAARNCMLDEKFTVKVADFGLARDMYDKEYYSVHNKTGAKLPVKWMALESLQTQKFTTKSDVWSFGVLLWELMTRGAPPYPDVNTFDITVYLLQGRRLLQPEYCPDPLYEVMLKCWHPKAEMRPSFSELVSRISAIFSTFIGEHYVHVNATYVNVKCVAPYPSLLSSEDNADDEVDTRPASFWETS

IC50 (c-Met in PC3 cells) [nM]	SMILES	IC50 [1] [nM]
< 1000	COc1cc2nccc(Oc3ccc4nc(NC(=O)c5ccsc5)sc4c3)c2cc1OC [Example 46, Thiophene-3-carboxylic acid [6-(6,7-dimethoxy-quinolin-4-yloxy)-benzothiazol-2-yl]-amide]	–
< 1000	Cc1cc(Oc2ccc3nc(NC(=O)Cc4ccccc4)sc3c2)ccn1 [Example 82, N-[6-(2-Methyl-pyridin-4-yloxy)-benzothiazol-2-yl]-2-phenyl-acetamide]	–
< 1000	COc1cc2nccc(Oc3ccc4oc(Nc5ccc(Cl)cc5)nc4c3)c2cc1OC [Example 96, 5-((6,7-bis(methoxy)-4-quinolinyl)oxy)-N-(4-chlorophenyl)-1,3-benzoxazol-2-amine]	–
< 1000	COc1cc2c(Oc3ccc4nc(NC(=O)c5ccccc5)sc4c3)ccnc2cc1OCCCN(C)C [Example 102, N-(6-((7-((3-(dimethylamino)propyl)oxy)-6-(methoxy)-4-quinolinyl)oxy)-1,3-benzothiazol-2-yl)benzamide]	–
< 1000	COc1cc2c(Oc3ccc4nc(NC(=O)c5ccsc5)sc4c3)ccnc2cc1OCCCN1CCOCC1 [Example 104, N-(6-((6-(methoxy)-7-((3-(4-morpholinyl)propyl)oxy)-4-quinolinyl)oxy)-1,3-benzothiazol-2-yl)-1-3-thiohenecarboxamide]	–
–	COc1ccc(C(=O)Nc2nn(C)c3cc(Oc4ccnc5cc(OC)c(OC)cc45)ccc23)cc1 [Example 132, N-(6-((6,7-bis(methyloxy)-4-quinolinyl)oxy)-1-methyl-1H-indazol-3-yl)-4-(methyloxy)benzamide]	< 500
–	COc1cc2nccc(Oc3ccc4c(NC(=O)c5ccc(Cl)cc5)nn(C)c4c3)c2cc1OC [Example 134, N-(6-((6,7-bis(methoxy)-4-quinolinyl)oxy)-1-methyl-1H-indazol-3-yl)-4-chlorobenzamide]	< 500
–	COc1cc2nccc(Oc3ccc4c(NC(=O)c5ccc(C(F)(F)F)cc5)nn(C)c4c3)c2cc1OC [Example 135, N-(6-((6,7-bis(methoxy)-4-quinolinyl)oxy)-1-methyl-1H-indazol-3-yl)-4-(trifluoromethyl)benzamide]	< 500
–	COc1cc2nccc(Oc3ccc4c(NC(=O)c5ccc(F)c(Cl)c5)nn(C)c4c3)c2cc1OC [Example 137, N-(6-((6,7-bis(methoxy)-4-quinolinyl)oxy)-1-methyl-1H-indazol-3-yl)-3-chloro-4-fluorobenzamide]	< 500
–	COc1cc2nccc(Oc3ccc4c(NC(=O)c5cc(C(F)(F)F)cc(C(F)(F)F)c5)nn(C)c4c3)c2cc1OC [Example 138, N-(6-((6,7-bis(methoxy)-4-quinolinyl)oxy)-1-methyl-1H-indazol-3-yl)-3,5-bis(trifluoromethyl)benzamide]	< 500
–	COc1cc2nccc(Oc3ccc4c(NC(=O)c5cccc(C)c5)nn(C)c4c3)c2cc1OC [Example 139, N-(6-((6,7-bis(methoxy)-4-quinolinyl)oxy)-1-methyl-1H-indazol-3-yl)-3-methylbenzamide]	< 500
–	COc1cc2nccc(Oc3ccc4c(NC(=O)c5cc(Cl)ccn5)nn(C)c4c3)c2cc1OC [Example 140, N-(6-((6,7-bis(methoxy)-4-quinolinyl)oxy)-1-methyl-1H-indazol-3-yl)-4-chloro-2-pyridinecarboxamide]	< 500
–	COc1cc2nccc(Oc3ccc4c(NC(=O)Nc5ccc(C)cc5)nn(C)c4c3)c2cc1OC [Example 142, N-(6-((6,7-bis(methoxy)quinolinyl)oxy)-1-methyl-1H-indazol-3-yl)-N′-(4-methylphenyl)urea]	< 500
–	COc1cc2nccc(Oc3ccc4c(NC(=O)Nc5ccccc5)nn(C)c4c3)c2cc1OC [Example 144, N-(6-((6,7-bis(methoxy)-4-quinolinyl)oxy)-1-methyl-1H-indazol-3-yl)-N′-phenylurea]	< 500
–	COc1ccc(NC(=O)Nc2nn(C)c3cc(Oc4ccnc5cc(OC)c(OC)cc45)ccc23)cc1 [Example 145, N-(6-((6,7-bis(methoxy)-4-quinolinyl)oxy)-1-methyl-1H-indazol-3-yl)-N′-(4-(methyloxy)phenyl)urea]	< 500
